Measured values as given in EP4818158A1, “BIARYL COMPOUND” (Kissei Pharmaceutical Co., Ltd., priority 2023, dated 2025).
pIC50: −log10 of the molar value.

Target: T1, human TSHR (Homo sapiens, UniProt P16473)
T1 construct: expressed in transfected cells
Assay: Antagonist activity using TSH-induced cAMP generation in human TSHR-stably expressing CHO cells
Assay type: cell-based
Conditions: human TSH 50 ng/mL
Method: Measurement of antagonist activity using TSH-induced cAMP generation in human TSHR-stably expressing CHO cells as an indicator
The gene sequence (reference number: NM_000369.2) of a human TSHR was inserted into multiple cloning sites of pcDNA3.1 (+). Prepared plasmid vectors were introduced into CHO cells using a lipofection method, and human TSHR-stably expressing CHO cells were established. Obtained cells were seeded in a 96-well poly-D-lysine-coated plate at 5 × 10^4 cells/well and cultured in an F12 culture medium containing 10%FBS, 400 µg/mL of G418, 50 U/mL of penicillin, and 50 µg/mL of streptomycin under conditions of 37°C and 5% CO2 for one day. After the culture medium was removed, the cells were washed twice with 100 µL of an assay buffer solution (Hanks' Balanced Salt Solution containing 20 mM HEPES and 1 mM IBMX) per well. 30 µL of a test compound-containing assay buffer solution was added to the well and incubated at room temperature for 15 minutes. Next, 30 µL of an assay buffer solution containing human TSH (final concentration: 50 ng/mL, R&D Systems, Inc.) was added thereto and incubated at 37°C for one hour. A supernatant was removed, a Lysis and Detection Buffer 2(Cisbio) was added thereto, and the mixture was incubated at room temperature for one hour to prepare a cell lysate. According to the instruction manual of a cAMP Gs HiRange kit (Cisbio), the cell lysate, d2-labeled cAMP, and anti-cAMP Europium Cryptate labeled antibodies (Cisbio) were reacted together in a 384-well white microplate. Next, fluorescence intensity ratios (measurement wavelengths: 665 nm/620 nm) were measured using a multi-plate reader (PHERAstar FSX, BMG LABTECH, Japan). The fluorescence intensity ratio of each sample was converted to a cAMP content using a standard curve. The cAMP content was converted as a percentage of the control value to calculate a cAMP generation rate. The cAMP generation rates were plotted against the test compound concentrations using Prism (Graph Pad Software Inc.) to calculate IC50 values. The IC50's of the individual test compounds are shown in the above tables. In the tables, IC50 < 0.3 µM was denoted as A, and 0.3 µM ≤ IC50 < 30 µM was denoted as B. Cases where the IC50 values were not calculated for test compounds from which activity was recognized are denoted as C.

T1 sequence (P16473 21-764): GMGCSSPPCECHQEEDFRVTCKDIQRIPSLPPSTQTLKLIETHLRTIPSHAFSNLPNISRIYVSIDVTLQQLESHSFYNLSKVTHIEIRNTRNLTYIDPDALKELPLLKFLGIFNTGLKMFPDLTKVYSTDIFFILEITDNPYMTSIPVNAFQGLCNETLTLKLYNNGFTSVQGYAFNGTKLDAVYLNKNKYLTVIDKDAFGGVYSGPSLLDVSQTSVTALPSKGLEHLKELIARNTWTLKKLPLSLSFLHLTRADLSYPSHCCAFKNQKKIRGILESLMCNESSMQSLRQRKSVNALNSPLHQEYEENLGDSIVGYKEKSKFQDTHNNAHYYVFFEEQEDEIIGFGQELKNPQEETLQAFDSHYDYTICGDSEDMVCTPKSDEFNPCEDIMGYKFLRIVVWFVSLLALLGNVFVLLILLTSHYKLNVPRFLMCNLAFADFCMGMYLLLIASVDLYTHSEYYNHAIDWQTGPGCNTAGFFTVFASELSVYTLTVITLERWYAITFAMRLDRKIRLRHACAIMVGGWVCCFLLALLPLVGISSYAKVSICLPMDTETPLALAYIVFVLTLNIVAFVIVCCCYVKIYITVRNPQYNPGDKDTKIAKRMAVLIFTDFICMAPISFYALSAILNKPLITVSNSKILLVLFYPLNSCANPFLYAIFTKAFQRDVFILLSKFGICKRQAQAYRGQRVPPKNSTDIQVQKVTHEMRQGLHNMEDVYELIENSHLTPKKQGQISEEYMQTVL

Structure (SMILES) | pIC50
CC(C)(C)OC(=O)Nc1ccc(-c2cccnc2CCC(N)=O)c(Cc2ccccc2C#N)c1F [Example A-39, tert-Butyl (4-(2-(3-amino-3-oxopropyl)pyridin-3-yl)-3-(2-cyanobenzyl)-2-fluorophenyl)carbamate] | > 6.52
CC(C)(C)OC(=O)Nc1ccc(-c2cccnc2CCC(N)=O)c(Cc2ccccc2S(C)(=O)=O)c1F [Example A-40, tert-Butyl (4-(2-(3-amino-3-oxopropyl)pyridin-3-yl)-2-fluoro-3-(2-(methylsulfonyl)benzyl)phenyl)carbamate] | 4.52 to 6.52
CC(C)(C)OC(=O)Nc1ccc(-c2cccnc2CNC(N)=O)c(Oc2ccccc2)c1F [Example B-1, tert-Butyl (2-fluoro-3-phenoxy-4-(2-(ureidomethyl)pyridin-3-yl)phenyl)carbamate] | > 6.52
CC(C)(C)OC(=O)Nc1ccc(-c2cccnc2CNC(N)=O)c(Oc2ccccc2F)c1F [Example B-2, tert-Butyl (2-fluoro-3-(2-fluorophenoxy)-4-(2-(ureidomethyl)pyridin-3-yl)phenyl)carbamate] | > 6.52
C[C@H](OC(=O)Nc1ccc(-c2cccnc2CNC(N)=O)c(Oc2ccccc2F)c1F)C(F)(F)F [Example B-3, (S)-1,1,1-Trifluoropropan-2-yl (2-fluoro-3-(2-fluorophenoxy)-4-(2-(ureidomethyl)pyridin-3-yl)phenyl)carbamate] | > 6.52
NC(=O)NCc1ncccc1-c1ccc(NC(=O)OCC2CC(F)(F)C2)c(F)c1Oc1ccccc1F [Example B-4] | > 6.52
NC(=O)NCc1ncccc1-c1ccc(NC(=O)OC2CC(F)(F)C2)c(F)c1Oc1ccccc1F [Example B-5] | 4.52 to 6.52
CC(C)(C)OC(=O)Nc1ccc(-c2cccnc2CCC(N)=O)c(Oc2ccccc2F)c1F [Example B-6, tert-Butyl (4-(2-(3-amino-3-oxopropyl)pyridin-3-yl)-2-fluoro-3-(2-fluorophenoxy)phenyl)carbamate] | > 6.52
CC(O)c1ncccc1-c1ccc(NC(=O)OC(C)(C)C)cc1Oc1ccccc1 (stereo not drawn) [Example B-7, tert-Butyl (4-(2-(1-hydroxyethyl)pyridine-3-yl)-3-phenoxyphenyl)carbamate] | < 4.52
CC(C)(C)OC(=O)Nc1ccc(-c2ccnnc2CNC(N)=O)c(Cc2ccccc2F)c1F [Example C-1, tert-Butyl (2-fluoro-3-(2-fluorobenzyl)-4-(3-(ureidomethyl)pyridazin-4-yl)phenyl)carbamate] | > 6.52
C[C@H](OC(=O)Nc1ccc(-c2ccnnc2CNC(N)=O)c(Cc2ccccc2F)c1F)C(F)(F)F [Example C-2, (S)-1,1,1-Trifluoropropan-2-yl (2-fluoro-3-(2-fluorobenzyl)-4-(3-(ureidomethyl)pyridazin-4-yl)phenyl)carbamate] | > 6.52
CC1(OC(=O)Nc2ccc(-c3ccnnc3CNC(N)=O)c(Cc3ccccc3F)c2F)CC1 [Example C-3, 1-Methylcyclopropyl (2-fluoro-3-(2-fluorobenzyl)-4-(3-(ureidomethyl)pyridazin-4-yl)phenyl)carbamate] | 4.52 to 6.52
CC(C)(C)OC(=O)Nc1ccc(-c2ccnnc2CCC(N)=O)c(Cc2ccccc2F)c1F [Example C-4, tert-Butyl (4-(3-(3-amino-3-oxopropyl)pyridazin-4-yl)-2-fluoro-3-(2-fluorobenzyl)phenyl)carbamate] | > 6.52
C[C@H](OC(=O)Nc1ccc(-c2ccnnc2CCC(N)=O)c(Cc2ccccc2F)c1F)C(F)(F)F [Example C-5, (S)-1,1,1-Trifluoropropan-2-yl (4-(3-(3-amino-3-oxopropyl)pyridazin-4-yl)-2-fluoro-3-(2-fluorobenzyl)phenyl)carbamate] | > 6.52
C[C@@H](OC(=O)Nc1ccc(-c2ccnnc2CCC(N)=O)c(Cc2ccccc2F)c1F)C1CC1 [Example C-6, (R)-1-Cyclopropylethyl (4-(3-(3-amino-3-oxopropyl)pyridazin-4-yl)-2-fluoro-3-(2-fluorobenzyl)phenyl)carbamate] | > 6.52
NC(=O)CCc1nnccc1-c1ccc(NC(=O)O[C@H]2C[C@H](F)C2)c(F)c1Cc1ccccc1F [Example C-7, trans-3-Fluorocyclobutyl (4-(3-(3-amino-3-oxopropyl)pyridazin-4-yl)-2-fluoro-3-(2-fluorobenzyl)phenyl)carbamate] | 4.52 to 6.52
NC(=O)CCc1nnccc1-c1ccc(NC(=O)OC2CC(F)(F)C2)c(F)c1Cc1ccccc1F [Example C-8] | > 6.52

Structure (SMILES) | pIC50
Cc1nnccc1-c1ccc(NC(=O)OC(C)(C)C)c(F)c1Cc1ccccc1F [Example C-9, tert-Butyl (2-fluoro-3-(2-fluorobenzyl)-4-(3-methylpyridazin-4-yl)phenyl)carbamate] | 4.52 to 6.52
NC(=O)NCc1nnccc1-c1ccc(NC(=O)OC2(C3CC3)CC2)c(F)c1Cc1ccccc1F [Example C-10] | 4.52 to 6.52
CC(C)(C)OC(=O)Nc1ccc(-c2ccnnc2CNC(N)=O)c(Oc2ccccc2F)c1F [Example D-1, tert-Butyl (2-fluoro-3-(2-fluorophenoxy)-4-(3-(ureidomethyl)pyridazin-4-yl)phenyl)carbamate] | 4.52 to 6.52
C[C@H](OC(=O)Nc1ccc(-c2ccnnc2CNC(N)=O)c(Oc2ccccc2F)c1F)C(F)(F)F [Example D-2, (S)-1,1,1-Trifluoropropan-2-yl (2-fluoro-3-(2-fluorophenoxy)-4-(3-(ureidomethyl)pyridazin-4-yl)phenyl)carbamate] | 4.52 to 6.52
CC(C)(C)OC(=O)Nc1ccc(-c2ccnnc2CCC(N)=O)c(Oc2ccccc2F)c1F [Example D-3, tert-Butyl (4-(3-(3-amino-3-oxopropyl)pyridazin-4-yl)-2-fluoro-3-(2-fluorophenoxy)phenyl)carbamate] | > 6.52
C[C@H](OC(=O)Nc1ccc(-c2ccnnc2CCC(N)=O)c(Oc2ccccc2F)c1F)C(F)(F)F [Example D-4, (S)-1,1,1-Trifluoropropan-2-yl (4-(3-(3-amino-3-oxopropyl)pyridazin-4-yl)-2-fluoro-3-(2-fluorophenoxy)phenyl)carbamate] | > 6.52
Cc1ccccc1C(=O)c1c(-c2cccnc2CNC(N)=O)ccc(NC(=O)OC(C)(C)C)c1F [Example E-1, tert-Butyl (2-fluoro-3-(2-methylbenzoyl)-4-(2-(ureidomethyl)pyridin-3-yl)phenyl)carbamate] | > 6.52
CC(C)(C)OC(=O)Nc1ccc(-c2cccnc2CNC(N)=O)c(C(=O)c2ccccc2C(F)(F)F)c1F [Example E-2] | 4.52 to 6.52
CC(C)(C)OC(=O)Nc1ccc(-c2cccnc2CCC(N)=O)c(C(=O)c2ccccc2F)c1F [Example E-3, tert-Butyl (4-(2-(3-amino-3-oxopropyl)pyridin-3-yl)-2-fluoro-3-(2-fluorobenzoyl)phenyl)carbamate] | > 6.52
C[C@H](OC(=O)Nc1ccc(-c2cccnc2CCC(N)=O)c(C(=O)c2ccccc2F)c1F)C(F)(F)F [Example E-4, (S)-1,1,1-Trifluoropropan-2-yl (4-(2-(3-amino-3-oxopropyl)pyridin-3-yl)-2-fluoro-3-(2-fluorobenzoyl)phenyl)carbamate] | > 6.52
C[C@H](OC(=O)Nc1ccc(-c2cccnc2CCC(N)=O)c(C(=O)c2ccccc2F)c1F)C1CC1 [Example E-5, (S)-1-Cyclopropylethyl (4-(2-(3-amino-3-oxopropyl)pyridin-3-yl)-2-fluoro-3-(2-fluorobenzoyl)phenyl)carbamate] | > 6.52
NC(=O)CCc1ncccc1-c1ccc(NC(=O)OC2CC(F)(F)C2)c(F)c1C(=O)c1ccccc1F [Example E-6] | 4.52 to 6.52
NC(=O)CCc1ncccc1-c1ccc(NC(=O)OCC2CC(F)(F)C2)c(F)c1C(=O)c1ccccc1F [Example E-7] | > 6.52
CC(C)(C)OC(=O)Nc1ccc(-c2cccnc2CCC(N)=O)c(C(=O)c2ccccc2C(F)(F)F)c1F [Example E-8, tert-Butyl (4-(2-(3-amino-3-oxopropyl)pyridin-3-yl)-2-fluoro-3-(2-(trifluoromethyl)benzoyl)phenyl)carbamate] | > 6.52
NC(=O)CCc1ncccc1-c1ccc(NC(=O)OC2CC(F)(F)C2)c(F)c1C(=O)c1ccccc1C(F)(F)F [Example E-9, 3,3-Difluorocyclobutyl (4-(2-(3-amino-3-oxopropyl)pyridin-3-yl)-2-fluoro-3-(2-(trifluoromethyl)benzoyl)phenyl)carbamate] | 4.52 to 6.52
CC(C)(C)OC(=O)Nc1ccc(-c2cccnc2CNC(N)=O)c(Cc2ncccc2F)c1F [Example F-1, tert-Butyl (2-fluoro-3-((3-fluoropyridin-2-yl)methyl)-4-(2-(ureidomethyl)pyridin-3-yl)phenyl)carbamate] | 4.52 to 6.52
